Data reported in patent US20190211024A1 (priority 2016, published 2019).

melting point: 185 °C
SMILES: CC(C)SN1C=Cn2c(nc(=O)n2[N+](=O)[O-])N1.O.O (hydrate or solvate)
